# Measured values as given in US6461997B1, “Triazole sulfones having herbicidal activity” (Monsanto Technology LLC, priority 1999, dated 2002).
# How the values were obtained:
# [1] = test system: GALAP (catchweed bedstraw); assay: Pre-emergence herbicidal activity, cool season; format: in vivo, Galium aparine; settings: lowest tested rate with 80% or greater inhibition; rates 300, 100, 30, 10 g/ha; about 14 days
# Summary of the method: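 Seeds sown in sterilised fertilised topsoil received surface-applied compound in 50:50 acetone/water, typically at 300, 100, 30 and 10 g/ha, then greenhouse-grown at 30/21° C (warm-season species) or 18/13° C (cool-season species). Percent inhibition versus untreated plants was scored at about 14 days, giving GR80; an asterisk marks activity short of 80% at the top rate.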
# [2] = test system: CHEAL (common lambsquarters); assay: Pre-plant incorporated (PPI) herbicidal activity, warm season; format: in vivo, Chenopodium album; settings: for PPI activity (GR80) CHEAL: pre-plant incorporated, GR80 = lowest tested rate with 80% or greater inhibition, approx. 14 days after treating, 30/21° C.; for Percent inhibition CHEAL: PPI application
# Summary of the method: (§1)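 Seeds were sown on compacted topsoil and covered with soil that had been sprayed with compound in organic solvent and mixed through. Pots got 0.64 cm overhead irrigation, then greenhouse at 30/21 °C (warm-season species) or 18/13 °C (cool-season species) day/night. Percent inhibition versus untreated plants was scored about 14 days after planting.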
# ALOMY (blackgrass) = assay: Pre-emergence herbicidal activity, cool season; format: in vivo, Alopecurus myosuroides; settings: GR80 = lowest tested rate (300, 100, 30, 10 g/ha) with 80% or greater inhibition; approx. 14 days after treating; 18/13° C.
# Summary of the method: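 Read-out: GR80, derived from percent growth inhibition relative to untreated plants at roughly 14 days after planting and treatment. Compounds went onto the surface of freshly seeded soil at 10–300 g/ha. Day/night regimes were 30/21 °C for millet and crabgrass, 18/13 °C for blackgrass and buckwheat.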
# [3] = test system: AGSST (creeping bentgrass); assay: Pre-plant incorporated (PPI) herbicidal activity, cool season; format: in vivo, Agrostis stolonifera; settings: for PPI activity GR80, AGSST: pre-plant incorporated, lowest tested rate with 80% or greater inhibition, about 14 days; for Percent inhibition AGSST: weed, PPI application
# Summary of the method: as §1
# [4] = test system: PANMI (wild proso millet); assay: Pre-plant incorporated (PPI) herbicidal activity, warm season; format: in vivo, Panicum miliaceum; settings: for Percent inhibition PANMI: PPI application; for PPI activity GR80, PANMI: pre-plant incorporated, lowest tested rate with 80% or greater inhibition, about 14 days
# Summary of the method: as §1
# AMARE (redroot pigweed) = assay: as above; format: in vivo, Amaranthus retroflexus; settings: for Percent inhibition AMARE: PPI application; for PPI activity (GR80) AMARE: pre-plant incorporated, GR80 = lowest tested rate with 80% or greater inhibition, approx. 14 days after treating, 30/21° C.
# Summary of the method: as §1
# wheat (TRZAW) = assay: Selectivity test, PPI, cool season crop; format: in vivo, Triticum aestivum; settings: PPI application
# Summary of the method: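 Pre-plant incorporated: compound in organic solvent sprayed onto cover soil, mixed and laid over seeds; untreated soil for controls. Greenhouse after treatment: warm season 30/21° C., cool season 18/13° C. day/night. Percent inhibition versus untreated plants scored about 14 days after planting.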
# SETFA (giant foxtail) = assay: Pre-plant incorporated (PPI) herbicidal activity, warm season; format: in vivo, Setaria faberi; settings: for Percent inhibition SETFA: PPI application; for PPI activity GR80, SETFA: pre-plant incorporated, lowest tested rate with 80% or greater inhibition, about 14 days
# Summary of the method: as §1
# SOLNI (black nightshade) = assay: as above; format: in vivo, Solanum nigrum; settings: for Percent inhibition SOLNI: PPI application; for PPI activity (GR80) SOLNI: pre-plant incorporated, GR80 = lowest tested rate with 80% or greater inhibition, approx. 14 days after treating, 30/21° C.
# Summary of the method: as §1
# ECHCG (barnyardgrass) = assay: Pre-emergence herbicidal activity, warm season; format: in vivo, Echinochloa crus-galli; settings: GR80 = lowest tested rate (300, 100, 30, 10 g/ha) with 80% or greater inhibition; approx. 14 days after treating; 30/21° C.
# Summary of the method: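 GR80 values derive from percent inhibition relative to untreated plants, read roughly 14 days after sowing and pre-emergence soil-surface treatment (compound in 50:50 acetone/water; rates typically 10, 30, 100, 300 g/ha). Warm-season weeds grew at 30/21° C day/night, cool-season ones at 18/13° C; an asterisk marks activity without reaching 80% at the highest rate.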
compound,measurement,setting,value
C=C(CC(F)(F)S(=O)(=O)c1ncn(C(=O)N(CC)CC)n1)C[Si](C)(C)C [Example 20],"Pre-emergence activity GR80, GALAP",[1],[empty]
same,PPI activity (GR80) CHEAL,[2],30 g/ha
same,Pre-emergence activity (GR80) ALOMY,ALOMY (blackgrass),100 g/ha
same,"PPI activity GR80, AGSST",[3],30 g/ha
same,Percent inhibition AGSST,[3]; 10 g/ha,0%
same,Percent inhibition AGSST,[3]; 30 g/ha,10%
same,Percent inhibition AGSST,[3]; 100 g/ha,85%
same,Percent inhibition AGSST,[3]; 300 g/ha,75%
same,Percent inhibition AGSST,[3]; 900 g/ha,100%
same,Percent inhibition PANMI,[4]; 10 g/ha,0%
same,Percent inhibition PANMI,[4]; 30 g/ha,20%
same,Percent inhibition PANMI,[4]; 100 g/ha,100%
same,Percent inhibition PANMI,[4]; 300 g/ha,65%
same,Percent inhibition PANMI,[4]; 900 g/ha,100%
same,"PPI activity GR80, PANMI",[4],100 g/ha
same,Percent inhibition AMARE,AMARE (redroot pigweed); 10 g/ha,0%
same,Percent inhibition AMARE,AMARE (redroot pigweed); 30 g/ha,0%
same,Percent inhibition AMARE,AMARE (redroot pigweed); 100 g/ha,50%
same,Percent inhibition AMARE,AMARE (redroot pigweed); 300 g/ha,100%
same,Percent inhibition AMARE,AMARE (redroot pigweed); 900 g/ha,100%
same,PPI activity (GR80) AMARE,AMARE (redroot pigweed),300 g/ha
same,Percent inhibition TRZAW,wheat (TRZAW); 10 g/ha,0%
same,Percent inhibition TRZAW,wheat (TRZAW); 30 g/ha,0%
same,Percent inhibition TRZAW,wheat (TRZAW); 100 g/ha,0%
same,Percent inhibition TRZAW,wheat (TRZAW); 300 g/ha,40%
same,Percent inhibition TRZAW,wheat (TRZAW); 900 g/ha,60%
same,Percent inhibition SETFA,SETFA (giant foxtail); 10 g/ha,0%
same,Percent inhibition SETFA,SETFA (giant foxtail); 30 g/ha,70%
same,Percent inhibition SETFA,SETFA (giant foxtail); 100 g/ha,99%
same,Percent inhibition SETFA,SETFA (giant foxtail); 300 g/ha,90%
same,Percent inhibition SETFA,SETFA (giant foxtail); 900 g/ha,100%
same,"PPI activity GR80, SETFA",SETFA (giant foxtail),100 g/ha
same,Percent inhibition SOLNI,SOLNI (black nightshade); 10 g/ha,0%
same,Percent inhibition SOLNI,SOLNI (black nightshade); 30 g/ha,0%
same,Percent inhibition SOLNI,SOLNI (black nightshade); 100 g/ha,0%
same,Percent inhibition SOLNI,SOLNI (black nightshade); 300 g/ha,30%
same,Percent inhibition SOLNI,SOLNI (black nightshade); 900 g/ha,100%
same,PPI activity (GR80) SOLNI,SOLNI (black nightshade),100 g/ha
same,Pre-emergence activity (GR80) ECHCG,ECHCG (barnyardgrass),300 g/ha
CCN(CC)C(=O)n1cnc(S(=O)(=O)C(F)(F)SCCOC)n1 [Example 13],"Pre-emergence activity GR80, GALAP",[1],100 g/ha
same,Percent inhibition CHEAL,[2]; 10 g/ha,30%
same,Percent inhibition CHEAL,[2]; 30 g/ha,20%
same,Percent inhibition CHEAL,[2]; 100 g/ha,100%
same,Percent inhibition CHEAL,[2]; 300 g/ha,100%
same,Percent inhibition CHEAL,[2]; 900 g/ha,100%
same,PPI activity (GR80) CHEAL,[2],30 g/ha
same,Pre-emergence activity (GR80) ALOMY,ALOMY (blackgrass),300 g/ha
same,"PPI activity GR80, AGSST",[3],30 g/ha
same,Percent inhibition AGSST,[3]; 10 g/ha,60%
same,Percent inhibition AGSST,[3]; 30 g/ha,95%
same,Percent inhibition AGSST,[3]; 100 g/ha,100%
same,Percent inhibition AGSST,[3]; 300 g/ha,100%
same,Percent inhibition AGSST,[3]; 900 g/ha,100%
same,Percent inhibition PANMI,[4]; 10 g/ha,100%
same,Percent inhibition PANMI,[4]; 30 g/ha,90%
same,Percent inhibition PANMI,[4]; 100 g/ha,70%
same,Percent inhibition PANMI,[4]; 300 g/ha,100%
same,Percent inhibition PANMI,[4]; 900 g/ha,100%
same,"PPI activity GR80, PANMI",[4],100 g/ha
same,Percent inhibition AMARE,AMARE (redroot pigweed); 10 g/ha,0%
same,Percent inhibition AMARE,AMARE (redroot pigweed); 30 g/ha,90%
same,Percent inhibition AMARE,AMARE (redroot pigweed); 100 g/ha,70%
same,Percent inhibition AMARE,AMARE (redroot pigweed); 300 g/ha,100%
same,Percent inhibition AMARE,AMARE (redroot pigweed); 900 g/ha,100%
same,PPI activity (GR80) AMARE,AMARE (redroot pigweed),100 g/ha
same,Percent inhibition TRZAW,wheat (TRZAW); 10 g/ha,0%
same,Percent inhibition TRZAW,wheat (TRZAW); 30 g/ha,0%
same,Percent inhibition TRZAW,wheat (TRZAW); 100 g/ha,20%
same,Percent inhibition TRZAW,wheat (TRZAW); 300 g/ha,20%
same,Percent inhibition TRZAW,wheat (TRZAW); 900 g/ha,30%
same,Percent inhibition SETFA,SETFA (giant foxtail); 10 g/ha,0%
same,Percent inhibition SETFA,SETFA (giant foxtail); 30 g/ha,99%
same,Percent inhibition SETFA,SETFA (giant foxtail); 100 g/ha,90%
same,Percent inhibition SETFA,SETFA (giant foxtail); 300 g/ha,100%
same,Percent inhibition SETFA,SETFA (giant foxtail); 900 g/ha,100%
same,"PPI activity GR80, SETFA",SETFA (giant foxtail),30 g/ha
same,Percent inhibition SOLNI,SOLNI (black nightshade); 10 g/ha,0%
same,Percent inhibition SOLNI,SOLNI (black nightshade); 30 g/ha,30%
same,Percent inhibition SOLNI,SOLNI (black nightshade); 100 g/ha,60%
same,Percent inhibition SOLNI,SOLNI (black nightshade); 300 g/ha,95%
same,Percent inhibition SOLNI,SOLNI (black nightshade); 900 g/ha,100%
same,PPI activity (GR80) SOLNI,SOLNI (black nightshade),100 g/ha
same,Pre-emergence activity (GR80) ECHCG,ECHCG (barnyardgrass),300 g/ha
